{"source": "patent US20160333419A1", "about": "“GENE SIGNATURES ASSOCIATED WITH SENSITIVITY TO MDM2 INHIBITORS” (DAIICHI SANKYO COMPANY, LIMITED, priority 2014, published 2016)", "key": {"[1]": {"tested_on": "CTG-0201 Melanoma", "test": "Champions TumorGraft model, tumor growth inhibition", "assay_type": "in vivo, mice", "conditions": "100 mg/kg/dose p.o./qd × 10, TGI evaluation Day 10", "excerpt": "(§1) Patient-derived xenograft models (Champions TumorGraftTM; Champions Oncology, Inc., Hackensack, N.J.) were used. Champions TumorGraftsTM provide a highly focused, accelerated translational platform, which is based upon the implantation of primary human tumors in immune-deficient mice followed by propagation of the resulting low-passage Champions TumorGraftsTM in a manner that preserves the biological characteristics of the original human tumor. […] The TumorGraftsTM models allow a comparison of gene expression analysis of patients' cancer samples and Champions TumorGraftTM samples by microarray expression analysis. Large numbers (e.g., 30,000) of genes are analyzed. […] Female immunocompromised nu/nu mice (Harlan) between 6-9 weeks of age were housed on irradiated […]-enriched 1⁄8'' corncob bedding ([…]) in individual HEPA ventilated cages (Innocage® IVC, Innovive USA) and were kept on a 12-hour light-dark cycle at 68-74° F. (20-23° C.) and 30-70% humidity. Animals were fed water ad libitum (reverse osmosis, 2 ppm C12) and an irradiated Test rodent diet (Teklad 2919) consisting of 19% protein, 9% fat, and 4% fiber. Animals were implanted bilaterally in the flank region with tumor fragments harvested from tumored host animals, each implanted from a specific passage lot. Pre-study tumor volumes were recorded for each experiment beginning approximately one week prior to its estimated start date. When tumors reached approximately 125-250 mm^3, animals were matched by tumor volume into treatment and control groups, and dosing was initiated (Day 0). Animals in all studies were tagged and followed individually throughout the experiment. Initial dosing for standard agents began on Day 0; animals in all groups were dosed by weight (0.01 ml per gram; 10 ml/kg). Dose concentration(s), route(s) of administration and schedule(s) for each group are listed in the Experimental Design section, wherein “p.o./qd×10” indicates orally (by mouth) daily for 10 days. The experimental design of the human tumor graft model study is presented below in Table 4. “n” indicates the number of animals per group; “ROA” indicates route of administration of the test agent, i.e., the MDM2i drug. Beginning on Day 0, tumor dimensions were measured twice weekly by digital caliper and data including individual and mean estimated tumor volumes (Mean TV±SEM) were recorded for each group. Tumor volume was calculated using the formula (1): TV=width^2×length×0.52. At study completion, percent tumor growth inhibition (% TGI) values were calculated and reported for each treatment group (T) versus control (C) using initial (i) and final (f) tumor measurements and the formula (2): % TGI=1-Tf-Ti/Cf-C. The tumor growth inhibition (TGI) values on the scheduled dates closest to the last administration are summarized Table 5 below. In this example, the study duration was defined by the tumor size of the vehicle control. In some cases, for example, that of CTG-0213 in Table 5, required a longer time period for the tumor to reach a threshold size. As a result, the test animals treated with the MDM2i Compound B were also left for a longer time period, e.g., 40 days in the case of CTG-0213, without MDM2i treatment. […] Thus, the evaluation of TGI was set to be near the end of the treatment period, such as around Day 7-11 (around Day 9)."}, "[2]": {"tested_on": "CTG-0282 Pancreatic", "test": "Champions TumorGraft model, tumor growth inhibition", "assay_type": "in vivo, mice", "conditions": "100 mg/kg/dose p.o./qd × 10, TGI evaluation Day 11", "excerpt": "as §1"}, "[3]": {"tested_on": "CTG-0159 NSCLC", "test": "Champions TumorGraft model, tumor growth inhibition", "assay_type": "in vivo, mice", "conditions": "100 mg/kg/dose p.o./qd × 10, TGI evaluation Day 11", "excerpt": "as §1"}, "[4]": {"tested_on": "CTG-0502 NSCLC", "test": "Champions TumorGraft model, tumor growth inhibition", "assay_type": "in vivo, mice", "conditions": "100 mg/kg/dose p.o./qd × 10, TGI evaluation Day 10", "excerpt": "as §1"}, "[5]": {"tested_on": "A375", "test": "OncoPanel cytotoxicity assay", "assay_type": "cell-based", "conditions": "Homo sapiens, A-375, 72 hour incubation", "method_in_brief": "(§2)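 Cells grown in RPMI 1640 with 10% FBS (or a special medium) at 37° C, 5% CO2 were treated 24 hours after seeding for 72 hours with 10 concentrations (3.16-fold dilutions, 0.1% DMSO final). Nuclei were dye-stained and imaged; IC50 was fit from percent of control relative cell count.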"}, "[6]": {"tested_on": "FaDu", "test": "OncoPanel cytotoxicity assay", "assay_type": "cell-based", "conditions": "Homo sapiens, 72 hour incubation", "method_in_brief": "as §2"}, "[7]": {"tested_on": "multi-cancer cell line panel", "test": "OncoPanel cytotoxicity assay, whole panel summary", "assay_type": "cell-based, human", "protocol": "This Example describes an evaluation of the effect of a representative small molecule MDM2i on the growth of cells in a multi-cancer cell line panel. In this Example, the MDM2 inhibitors used were Compound A and Compound B p-toluenensulfonate. The panel included 250 human cancer cell lines (OncoPanel™, Ricerca Biosciences, Painesville, Ohio) that were evaluated in a high content drug screening analysis. The relative IC50 values for the cell lines were determined.\nCells were grown in RPMI 1640, 10% FBS, 2 mM L-alanyl-L-Glutamine, 1 mM Na Pyruvate, or a special medium in a humidified atmosphere of 5% CO2 at 37° C. Cells were seeded into 384-well plates and incubated in a humidified atmosphere of 5% CO2 at 37° C. Test compounds were added 24 hours post cell seeding. At the same time, a time zero, untreated cell plate was generated as a control. After a 72 hour incubation period, cells were fixed and stained with nuclear dye to allow visualization of nuclei.\nCompounds were serially diluted 3.16-fold and assayed over 10 concentrations of inhibitor in a final assay concentration of 0.1% DMSO from the highest test concentration specified in the sample information chapter. Automated fluorescence microscopy was carried out using a GE Healthcare InCell Analyzer 1000, and images were collected with a 4× objective. Twelve bit tiff images were acquired using the InCell Analyzer 1000 3.2 and analyzed with Developer Toolbox 1.6 software.\nCell proliferation was measured by the signal intensity of the incorporated nuclear dye. The cell proliferation assay output is referred to as the relative cell count. To determine the cell proliferation end point, the cell proliferation data output is transformed to percent of control (POC) using the following formula: […]\nRelative cell count IC50 (IC50) is the test compound's concentration that produces 50% of the cell proliferation inhibitory response or 50% cytotoxicity level. IC50 values were calculated using nonlinear regression to fit data to a sigmoidal 4 point, 4 parameter One-Site dose response model, where: y (fit)=A+[(B−A)/(1+((C/x)̂D))]. […]"}, "[8]": {"conditions": "share of the cell lines of the panel"}}, "note": "pIC50: −log10 of the molar value.", "data": [{"smiles": "CC1(C)CCC2(CC1)N[C@@H](C(=O)N[C@@H]1CC[C@@H](C(N)=O)OC1)[C@H](c1ccnc(Cl)c1F)[C@]21C(=O)Nc2cc(Cl)ccc21", "note": "[Compound B, (3′R,4′S,5′R)—N-[(3R,6S)-6-carbamoyltetrahydro-2H-pyran-3-yl]-6″-chloro-4′-(2-chloro-3-fluoropyridin-4-yl)-4,4-dimethyl-2″-oxo-1″,2″-dihydrodispiro[cyclohexane-1,2′-pyrrolidine-3′,3″-indole]-5′-carboxamide]", "values": [{"measurement": "% TGI", "setting": "[1]", "result": "−10", "unit": "%"}, {"measurement": "% TGI", "setting": "[2]", "result": "−30", "unit": "%"}, {"measurement": "% TGI", "setting": "[3]", "result": "−13", "unit": "%"}, {"measurement": "% TGI", "setting": "[4]", "result": 122, "unit": "%"}, {"measurement": "pIC50", "setting": "[5]", "result": 7.36}, {"measurement": "pIC50", "setting": "[6]", "result": "< 5.00"}]}, {"smiles": "CC[C@@H]1CNC2(CC2)CN1C(=O)[C@@H]1C[C@@H](F)CN1C(=O)C1=C(C(C)C)N2C(=N[C@@](C)(c3ccc(Cl)nc3)[C@H]2c2ccc(Cl)c(F)c2)S1", "note": "[Compound A, [(5R,6S)-5-(4-Chloro-3-fluorophenyl)-6-(6-chloropyridin-3-yl)-6-methyl-3-(propan-2-yl)-5,6-dihydroimidazo[2,1-b][1,3]thiazol-2-yl][(2S,4R)-2-{[(6R)-6-ethyl-4,7-diazaspiro[2.5]oct-7-yl]carbonyl}-4-fluoropyrrolidin-1-yl]methanone]", "values": [{"measurement": "pIC50", "setting": "[5]", "result": 6.50}, {"measurement": "pIC50", "setting": "[6]", "result": "< 4.40"}, {"measurement": "pIC50", "setting": "[7]; Homo sapiens, range over all cell lines of the panel, read-out: Cell line IC50 values ranged", "result": "≤ 6.92"}, {"measurement": "cell lines with IC50 values of <1 μM", "setting": "[7]; [8]", "result": "Approximately 25%"}, {"measurement": "cell lines with IC50 values of >10 μM", "setting": "[7]; [8]", "result": "approximately 70%"}]}]}
